# According to ChEMBL document CHEMBL3244165, “Improved synthesis and in vitro antiviral activities of 5-cyanouridine and 5-cyano-2'-deoxyuridine” (J Med Chem, 1977):
# Tested on: Vaccinia virus
# Test: Antiviral activity against Vaccinia virus infected in human skin fibroblasts assessed as inhibition of virus-induced cytopathogenicity
# Assay type: functional, Orthopoxvirus vaccinia
row,SMILES,ID50
1,N#Cc1cn([C@@H]2O[C@H](CO)[C@@H](O)[C@H]2O)c(=O)[nH]c1=O,>7 ×10⁻⁴ M
2,N#Cc1cn([C@H]2C[C@H](O)[C@@H](CO)O2)c(=O)[nH]c1=O,2.7 ×10⁻⁵ M
3,O=c1[nH]c(=O)n([C@H]2C[C@H](O)[C@@H](CO)O2)cc1Br [BROXURIDINE],6.5 ×10⁻⁷ M
4,O=c1[nH]c(=O)n([C@H]2C[C@H](O)[C@@H](CO)O2)cc1Cl [CHLORODEOXYURIDINE],1.5 ×10⁻⁶ M
5,O=c1[nH]c(=O)n([C@H]2C[C@H](O)[C@@H](CO)O2)cc1F [FLOXURIDINE],4 ×10⁻⁷ M
6,O=c1[nH]c(=O)n([C@H]2C[C@H](O)[C@@H](CO)O2)cc1I [IDOXURIDINE],1.1 ×10⁻⁶ M
7,O=c1[nH]c(=O)n([C@H]2C[C@H](O)[C@@H](CO)O2)cc1C(F)(F)F [TRIFLURIDINE],1.3 ×10⁻⁶ M
8,Nc1ncnc2c1ncn2[C@@H]1O[C@H](CO)[C@@H](O)[C@@H]1O [VIDARABINE],2.6 ×10⁻⁵ M
